Results from patent US20240317686A1, “RORyT MODULATOR, AND PREPARATION METHOD THEREFOR AND APPLICATION THEREOF” (SHANGHAI PHARMACEUTICALS HOLDING CO., LTD., priority 2020, published 2024).

What follows are molecules tested against T1, RORγt (Homo sapiens, UniProt P51449) (assay: Fluorescence resonance energy transfer (FRET) assay of inhibitory activity on RORγt). Conditions: RORgt-LBD GST with SRC peptide.
T1 construct: Prepare 4×RORgt-LBD in 1× buffer
T1 sequence (P51449 269-508 limits assumed): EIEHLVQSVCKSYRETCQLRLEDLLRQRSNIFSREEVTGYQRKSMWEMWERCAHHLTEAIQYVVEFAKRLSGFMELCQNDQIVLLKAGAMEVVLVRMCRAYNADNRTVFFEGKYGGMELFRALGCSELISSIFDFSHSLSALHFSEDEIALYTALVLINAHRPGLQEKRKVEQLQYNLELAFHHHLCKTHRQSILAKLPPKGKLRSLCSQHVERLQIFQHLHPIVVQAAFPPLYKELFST
Type: biochemical
Description: Fluorescence resonance energy transfer (FRET) experiment was performed to assay the inhibitory activity of the compound of the present invention on RORγt.
1) Preparation of DMSO stock solutions of the compounds: All compounds were dissolved in DMSO to prepare 10 mM stock solutions.
2) Compound storage: After the compound was dissolved in DMSO, the solution can be stored in a desiccator at room temperature for three months. For long-term storage, the solution should be put in a −20° C. refrigerator.
3) Preparation of working solution: • a) Positive control compound AZD0284: Starting from 500 µM, the solution was diluted serially by 3-folds with DMSO to obtain a 10-concentration gradient, each concentration with 3 replicate wells. 2 wells were pipetted. The gradiently diluted compound was diluted in a reaction buffer to obtain a 4× working solution (starting from 40 μM, diluted gradiently by 3-folds) of the positive control compound. • b) Compounds to be tested: Starting from 500 μM, the solution was diluted serially by 3-folds with DMSO to obtain a 10-concentration gradient, each concentration with 3 replicate wells. 2 wells were pipetted. The gradiently diluted compound was diluted in a reaction buffer to obtain a 4× working solution ([…], diluted gradiently by 3-folds) of the compounds to be tested. • c) Prepare a 4× negative control (8% DMSO). • d) Centrifuge the plate at 1000 rpm for 1 min.
1) Prepare 4× serially diluted compounds in 1× buffer.
2) Add 5 μl of the 4× serially diluted compound (prepared in step 1) to a 384 assay plate (784075, Greiner).
3) Prepare 4×RORgt-LBD in 1× buffer.
4) Add 5 μl of the 4×RORgt-LBD (prepared in step 3) to the 384 assay plate (prepared in step 2).
5) Incubate the assay plate for 15 min at room temperature, protected from light.
6) Prepare a 2× mixture of SRC, anti-GST Eu and streptavidin-d2 in 1× […].
7) Add 10 μl of the 2× mixture (prepared in step 6) to the 384 assay plate (prepared in step 4).
8) Centrifuge the 384 assay plates at 1000 g for 1 min.
9) Incubate for 3 h at room temperature, protected from light.
10) Read the plate at wavelengths of 665 nm and 615 nm on an Envision 2104 plate reader.
Relative ratio (RR): Calculate the relative ratio (response value at 665 nm/response value at 615 nm-response value in blank background) of each well.
Inhibition rate %=[1−(fluorescence detection value of the compound−fluorescence detection average of the positive compound)/(fluorescence detection average of the negative control−fluorescence detection average of the positive compound)]×100
Calculate the IC50 and dose-response curve of the compound: The IC50 and dose-response curve of the compound were obtained via Graphpad 8.0 by calculating the inhibition rate of the compound and the log value of the compound concentration.

IC50 [nM] | SMILES
1 to 10 | CCS(=O)(=O)c1ccc(CC(=O)Nc2ccc(C(=O)C(C)(C)c3cc(Br)ccn3)nc2)cc1 [Compound I-58, N-(6-(2-(4-bromopyridin-2-yl)-2-methylpropionyl)pyridin-3-yl)-2-(4-(ethylsulfonyl)phenyl)acetamide]
10 to 50 | CCS(=O)(=O)c1ccc(CC(=O)Nc2ccc(C(=O)C(C)(C)c3ncc(C)cn3)nc2)cc1 [Compound I-59, 2-(4-(ethylsulfonyl)phenyl)-N-(6-(2-methyl-2-(5-methylpyrimidin-2-yl)propionyl)pyridin-3-yl) acetamide]
100 to 1000 | CCS(=O)(=O)c1ccc(CC(=O)Nc2ccc(C(=O)C3(c4cnn(C)c4)CC3)nc2)cc1 [Compound I-60, 2-(4-(ethylsulfonyl)phenyl)-N-(6-(1-(1-methyl-1H-pyrazol-4-yl)cyclopropane-1-carbonyl)pyridin-3-yl)acetamide]
1 to 10 | CCS(=O)(=O)c1ccc(CC(=O)Nc2ccc(C(=O)C(C)(C)c3cccc(F)n3)nc2)cc1 [Compound I-61]
50 to 100 | CCS(=O)(=O)c1ccc(CC(=O)Nc2ccc(C(=O)C(C)(C)c3nc(C)co3)nc2)cc1 [Compound I-62]
10 to 50 | CNS(=O)(=O)c1ccc(CC(=O)Nc2ccc(C(=O)C(C)(C)c3ccccn3)nc2)cc1 [Compound I-63, N-(6-(2-methyl-2-(pyridin-2-yl)propionyl)pyridin-3-yl)-2-(4-(N-methylsulfamoyl)phenyl)acetamide]
> 1000 | CN(C)S(=O)(=O)c1ccc(CC(=O)Nc2ccc(C(=O)C(C)(C)c3ccccn3)nc2)cc1 [Compound I-64, 2-(4-(N,N-dimethylsulfamoyl)phenyl)-N-(6-(2-methyl-2-(pyridin-2-yl)propionyl)pyridin-3-yl)acetamide]
1 to 10 | CCS(=O)(=O)c1ccc(CC(=O)Nc2ccc(C(=O)C(C)(C)c3cccc(C#N)n3)nc2)cc1 [Compound I-65]
1 to 10 | CCS(=O)(=O)c1ccc(CC(=O)Nc2ccc(C(=O)C3(c4ccc(F)cc4)CC(F)(F)C3)nc2)cc1 [Compound I-66]
100 to 1000 | CN(C)S(=O)(=O)c1ccc(CC(=O)Nc2ccc(C(=O)C3(c4ccc(F)cc4)CC(F)(F)C3)nc2)cc1 [Compound I-67]
100 to 1000 | CCS(=O)(=O)c1ccc(CC(=O)Nc2ccc(C(=O)C3(c4ccc(F)cn4)CC3)nc2)cc1 [Compound I-68, 2-(4-(ethylsulfonyl)phenyl)-N-(6-(1-(5-fluoropyridin-2-yl)cyclopropane-1-carbonyl)pyridin-3-yl)acetamide]
10 to 50 | CCC(C(=O)c1ccc(NC(=O)Cc2ccc(S(=O)(=O)CC)cc2)cn1)c1ccccn1 (stereo not drawn) [Compound I-69]
50 to 100 | CCS(=O)(=O)c1ccc(CC(=O)Nc2ccc(C(=O)C(C)(C)c3ccccn3)cn2)cc1 [Compound I-71, 2-(4-(ethylsulfonyl)phenyl)-N-(5-(2-methyl-2-(pyridin-2-yl)propionyl)pyridin-2-yl)acetamide]
50 to 100 | CCS(=O)(=O)c1ccc(CC(=O)Nc2ccc(C(=O)C(C)(C)c3cn(C)cn3)nc2)cc1 [Compound I-72, 2-(4-(ethylsulfonyl)phenyl)-N-(6-(2-methyl-2-(1-methyl-1H-imidazol-4-yl)propionyl)pyridin-3-yl)acetamide]
10 to 50 | CCS(=O)(=O)c1ccc(CC(=O)Nc2ccc(C(=O)C(C)c3ccccn3)nc2)cc1 (stereo not drawn) [Compound I-73, 2-(4-(ethylsulfonyl)phenyl)-N-(6-(2-(pyridin-2-yl)propanoyl)pyridin-3-yl)acetamide]
10 to 50 | CCS(=O)(=O)c1ccc(CC(=O)Nc2ccc(C(=O)C(c3ccccn3)C(C)C)nc2)cc1 (stereo not drawn) [Compound I-74]
1 to 10 | CNS(=O)(=O)c1ccc(CC(=O)Nc2ccc(C(=O)C3(c4ccc(F)cc4)CC(F)(F)C3)nc2)cc1 [Compound I-75, N-(6-(3,3-difluoro-1-(4-fluorophenyl)cyclobutane-1-carbonyl)pyridin-3-yl)-2-(4-(N-methylsulfamoyl)phenyl)acetamide]
1 to 10 | CCS(=O)(=O)c1ccc(CC(=O)Nc2ccc(C(=O)C(C)(C)c3cccc(C(F)(F)F)n3)nc2)cc1 [Compound I-76]
